The results in this text go back to US20190367516A1 (Bayer Pharma Aktiengesellschaft, priority 2015, published 2019).

Each structure is given as a SMILES string.

This experiment has as its target T1, human M2 receptor (Homo sapiens, UniProt P08172).
T1 sequence (P08172 1-466): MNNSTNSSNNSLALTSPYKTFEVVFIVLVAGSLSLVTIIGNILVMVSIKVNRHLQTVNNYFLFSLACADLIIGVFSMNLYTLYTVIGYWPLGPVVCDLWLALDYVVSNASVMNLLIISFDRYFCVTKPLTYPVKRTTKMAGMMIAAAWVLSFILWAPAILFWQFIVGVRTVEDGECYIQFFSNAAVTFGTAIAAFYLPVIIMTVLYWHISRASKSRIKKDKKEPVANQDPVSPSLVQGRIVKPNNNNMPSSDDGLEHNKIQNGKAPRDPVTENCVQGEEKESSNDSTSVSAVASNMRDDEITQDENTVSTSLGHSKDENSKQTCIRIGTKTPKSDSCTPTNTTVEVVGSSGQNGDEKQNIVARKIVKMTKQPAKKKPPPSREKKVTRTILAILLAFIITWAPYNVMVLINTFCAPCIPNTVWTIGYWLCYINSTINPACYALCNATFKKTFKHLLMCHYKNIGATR
Particulars: M2-GIRK1/4 reporter cells; for EC50: Receptor activity EC50, allosteric potency at EC20 acetylcholine, in some cases mean of two or more determinations; for Emax: read-out: Efficiency, boosting of the acetylcholine effect at EC20 acetylcholine concentration.

Regarding `CC[C@@H](NC(=O)c1cn(-c2ccc(F)cc2F)c2nc(N3C(=O)CCC3C)ccc2c1=O)C(F)(F)F` (mixture of isomers) [Example 426, 1-(2,4-Difluorophenyl)-7-[2-methyl-5-oxopyrrolidin-1-yl]-4-oxo-N-[(2R)-1,1,1-trifluorobutan-2-yl]-1,4-dihydro-1,8-naphthyridine-3-carboxamide], the EC50 is 48 nM and the Emax is 92%.
In the case of `CC1CC(=O)N(c2ccc3c(=O)c(C(=O)N[C@@H](C4CC4)C(F)(F)F)cn(-c4c(F)cc(F)cc4Cl)c3n2)C1` (mixture of isomers) [Example 429, 1-(2-Chloro-4,6-difluorophenyl)-N-[(1 S)-1-cyclopropyl-2,2,2-trifluoroethyl]-7-[4-methyl-2-oxopyrrolidin-1-yl]-4-oxo-1,4-dihydro-1,8-naphthyridine-3-carboxamide], the EC50 turned out to be 16 nM and the Emax is 99%.
For `CC1CN(c2ccc3c(=O)c(C(=O)N[C@@H](C4CC4)C(F)(F)F)cn(-c4c(F)cc(F)cc4F)c3n2)C(=O)O1` (mixture of isomers) [Example 436, N-[(1 S)-1-Cyclopropyl-2,2,2-trifluoroethyl]-7-[5-methyl-2-oxo-1,3-oxazolidin-3-yl]-4-oxo-1-(2,4,6-trifluorophenyl)-1,4-dihydro-1,8-naphthyridine-3-carboxamide] the same measures were 81 nM and 94%.
For `O=C(NC(CC(F)(F)F)C1CC1)c1cn(-c2c(F)cc(F)cc2F)c2nc(N3C[C@@H](O)[C@H](O)C3)ccc2c1=O` (mixture of isomers) [Example 438, N-[1-Cyclopropyl-3,3,3-trifluoropropyl]-7-[(3R,4R)-3,4-dihydroxypyrrolidin-1-yl]-4-oxo-1-(2,4,6-trifluorophenyl)-1,4-dihydro-1,8-naphthyridine-3-carboxamide] the same measures were 37 nM and 99.5%.
The like results for `CC(NC(=O)c1cn(-c2c(F)cc(F)cc2F)c2nc(N3C[C@@H](O)[C@H](O)C3)ccc2c1=O)(C1CC1)C(F)(F)F` (mixture of isomers) [Example 441, N-[2-Cyclopropyl-1,1,1-trifluoropropan-2-yl]-7-[(3R,4R)-3,4-dihydroxypyrrolidin-1-yl]-4-oxo-1-(2,4,6-trifluorophenyl)-1,4-dihydro-1,8-naphthyridine-3-carboxamide] were, in that order, 15 nM and 100%.
With `CCC(COC(F)(F)F)NC(=O)c1cn(-c2c(F)cc(F)cc2F)c2nc(N3C[C@@H](C)NC3=O)ccc2c1=O` (mixture of isomers) [Example 453, 7-[(4R)-4-Methyl-2-oxoimidazolidin-1-yl]-4-oxo-N-[(2S)-1-(trifluoromethoxy)butan-2-yl]-1-(2,4,6-trifluorophenyl)-1,4-dihydro-1,8-naphthyridine-3-carboxamide], the EC50 amounted to 11 nM and the Emax was found to be 98.5%.
The like results for `CC(NC(=O)c1cn(-c2c(F)cc(F)cc2F)c2nc(N3C[C@@H](C)NC3=O)ccc2c1=O)C(F)(F)C(F)(F)F` (mixture of isomers) [Example 458, 7-[(4R)-4-Methyl-2-oxoimidazolidin-1-yl]-4-oxo-N-[3,3,4,4,4-pentafluorobutan-2-yl]-1-(2,4,6-trifluorophenyl)-1,4-dihydro-1,8-naphthyridine-3-carboxamide] were, in that order, 3 nM and 100%.
For `O=C(N[C@@H](C1CC1)C(F)(F)F)c1cn(-c2c(F)cc(F)cc2F)c2nc(N3CCOC(CO)C3)ccc2c1=O` (mixture of isomers) [Example 463, N-[(1 S)-1-Cyclopropyl-2,2,2-trifluoroethyl]-7-[2-(hydroxymethyl)morpholin-4-yl]-4-oxo-1-(2,4,6-trifluorophenyl)-1,4-dihydro-1,8-naphthyridine-3-carboxamide], the EC50 was 54 nM and the Emax stood at 89%.
